Species on record: Rattus norvegicus
Format: toxicity, organism-based, Sprague-Dawley
Conditions: in vivo, sc, 0 mg/kg, 24 h, route mini-PUMP - SUBCUTANEOUS, dose level Control, time 1 day, vehicle 100 % SALINE
Description: DrugMatrix - Regimen: Single

With `CNC[C@H](O)c1ccc(O)c(O)c1` [EPINEPHRINE] the “ABSOLUTE EOSINOPHIL” value (tissue Blood) was 26.17 CELLS/uL, the “ABSOLUTE LYMPHOCYTE” value (tissue Blood) was 10985.83 CELLS/uL and the “ABSOLUTE MONOCYTE” value (tissue Blood) was 234.5 CELLS/uL. The “ABSOLUTE SEGMENTED NEUTROPHIL” value (tissue Blood) was 1753.5 CELLS/uL, the BASOPHIL (tissue Blood) was 0% and the EOSINOPHIL (tissue Blood) was 0.17%. The “ERYTHROCYTE COUNT” value (tissue Blood) was 5.64 x10E6/uL, the HEMOGLOBIN (tissue Blood) was 12.68 G/DL and the “LEUKOCYTE COUNT” value (tissue Blood) was 13 x10E3/uL. For the same compound, the LYMPHOCYTE (tissue Blood) was 84.5%, the “MEAN CORPUSCULAR HEMOGLOBIN” value (tissue Blood) was 22.5 pg and the “MEAN CORPUSCULAR HEMOGLOBIN CONCENTRATION” value (tissue Blood) was 36.78 G/DL. The “MEAN CORPUSCULAR VOLUME” value (tissue Blood) was 61.18 fL, the NEUTROPHIL (tissue Blood) was 13.5% and the “NUCLEATED RED BLOOD CELLS” value (tissue Blood) was 0.17 /100WBC. For the same compound, the “PLATELET COUNT” value (tissue Blood) was 679.17 x10E3/uL, the “ALANINE AMINOTRANSFERASE” value (tissue Plasma) was 42.67 u/L and the ALBUMIN (tissue Plasma) was 3.77 G/DL. The “ALKALINE PHOSPHATASE” value (tissue Plasma) was 291.17 u/L, the “ASPARTATE AMINOTRANSFERASE” value (tissue Plasma) was 74.5 u/L and the “BLOOD UREA NITROGEN” value (tissue Plasma) was 15.33 mg/dL. For the same compound, the “CARBON DIOXIDE” value (tissue Plasma) was 30 mmol/L, the CHLORIDE (tissue Plasma) was 100.83 MEQ/L and the CHOLESTEROL (tissue Plasma) was 65.33 mg/dL. For the same compound, the CREATININE (tissue Plasma) was 0.15 mg/dL, the “LACTATE DEHYDROGENASE” value (tissue Plasma) was 162.67 u/L and the LIPASE (tissue Plasma) was 8.5 u/L. The PHOSPHORUS (tissue Plasma) was 12.2 mg/dL, the POTASSIUM (tissue Plasma) was 5.73 MEQ/L and the SODIUM (tissue Plasma) was 144.7 MEQ/L. For the same compound, the “TOTAL BILIRUBIN” value (tissue Plasma) was 0.15 mg/dL, the “TOTAL PROTEIN” value (tissue Plasma) was 5.87 G/DL and the “URIC ACID” value (tissue Plasma) was 1.93 mg/dL.
